From patent US10500222B2, “Compositions and methods relating to treatment of infection” (Wayne State University, priority 2015, dated 2019)
Converted amounts (≈) assume the structure as drawn.

Experiments:
[1] = test system: mRNA levels in P. aeruginosa ATCC strain 19660 infected cornea; test: Real time RT-PCR of cornea, strain 19660 infection; type: in vivo, C57BL/6 (B6) mice; settings: vs PBS
Protocol: (§1) The left eyes of B6 mice (n=5/group/time) were injected with 5 μl of 2 μg/μl glycyrrhizin (GLY) (Sigma-Aldrich, St. Louis, Mo.) or PBS (control) subconjunctivally, one day before infection. Similar treatment was done using carbenoxolone (CBX) (Sigma-Aldrich, St. Louis, Mo.). All mice were injected intraperitoneally (IP) at 1 and 3 days p.i. with 100 μl of GLY (2 μg/μl) or CBX (1 μg/μl). PBS served as control for all these experiments. In a separate similar experiment mice were treated one day before infection with GLY subconjunctivally and injected intraperitoneally (i.p.) with GLY plus recombinant (r) HMGB1 (1 μg/100 μl) or GLY plus PBS. IP injections were similarly given at 1 and 3 days p.i. In an additional experiment, KEI 1025 infected B6 mice were treated with 5 μl of 2 μg/μl GLY subconjunctivally at 6 hours p.i. and injected intraperitoneally at 1 and 3 days p.i. with 100 μl of GLY (2 μg/μl).
KEI 1025 or ATCC strain 19660 infected GLY or PBS treated mice were sacrificed at 5 days p.i. and the normal, contralateral (uninfected) and infected cornea was harvested. For each cornea, total RNA was isolated (RNA STAT-60™; Tel-Test, Friendswood, Tex.) according to the manufacturer's instructions. Upon spectrophotometric quantification at 260 nm, 1 μg of each RNA sample was reverse transcribed using Moloney-murine leukemia virus (M-MLV) reverse transcriptase (Invitrogen, Carlsbad, Calif.) to produce a cDNA template for the PCR reaction. cDNA products were diluted 1:25 with diethylpyrocarbonate (DEPC)-treated water. A 2 μl aliquot of diluted cDNA was used for the real-time RT-PCR reaction with Real-Time SYBR® Green/Fluorescein PCR Master Mix (Bio-Rad) and primer concentrations of 10 μM (total 10 μl reaction volume). After a pre-programmed hot start cycle (3 min at 95° C.), the parameters used for PCR amplification were: 15 sec at 95° C. and 60 sec at 60° C. with the cycles repeated 45 times. Optimal conditions for PCR amplification of cDNA were established using routine methods. mRNA levels of HMGB1, RAGE, IL-1β, TLR2, TLR4, CXCL2, TNF-α, NLR family pyrin domain containing 3 (NLRP3), NLR family CARD domain containing 4 (NLRC4), IL-12, TGF-β, IL-10, single Ig IL-1-related receptor (SIGIRR) and interleukin 1 receptor-like 1 (ST2) were tested by real-time RT-PCR (CFX Connect™ Real-Time PCR Detection System; Bio-Rad, Richmond, Calif.). The fold differences in gene expression were calculated after normalization to β-actin and expressed as the relative mRNA concentration+SEM.

P. aeruginosa ATCC 19660 = test: Bacterial growth and Minimum Inhibitory Concentration (MIC), strain 19660; type: cell-based, Pseudomonas aeruginosa; settings: for absorbance values of bacterial cultures: vs growth control
P. aeruginosa KEI 1025 = test: Bacterial growth and Minimum Inhibitory Concentration (MIC), strain KEI 1025; type: cell-based, Pseudomonas aeruginosa; settings: for absorbance values of bacterial cultures: vs growth control
[2] = test system: P. aeruginosa ATCC strain 19660 infected cornea; test: Ocular response to bacterial infection (clinical score, slit lamp), strain 19660 keratitis; type: in vivo, C57BL/6 (B6) mice; settings: pretreatment subconj. + IP, vs PBS
From the text: P. aeruginosa strains, KEI 1025, a non-cytotoxic clinical isolate strain expressing exoT and exoS, and not expressing exoU, described in Estrellas P S, Jr., et al., Curr Eye Res. 2000; 20:157-165 (obtained from Kresge Eye Institute, Detroit, Mich.), and a cytotoxic strain, 19660, expressing exoU, described in Finck-Barbancon V, et al., Mol Microbiol. 1997; 25:547-557; and Fleiszig S M, et al., Infect Immun. 1997; 65:579-586 (obtained from American Type Culture Collection, ATCC, Manassas, Va.), were grown in peptone tryptic soy broth (PTSB) medium in a rotary shaker water bath at 37° C. and 150 rpm for 18 h to an optical density (measured at 540 nm) between 1.3-1.8. Bacterial cultures were pelleted by centrifugation at 5,500 g for 10 min. Pellets were washed once with sterile saline, re-centrifuged, re-suspended and diluted in sterile saline. Anesthetized (using anhydrous ethyl ether) mice were placed beneath a stereoscopic microscope at 40× magnification. The left cornea was scarified with three 1-mm incisions using a sterile 25^5/8 gauge needle. The wounded corneal surface was topically treated with 5 μl containing 1×10^7 CFU/μl (KEI 1025) or 1×10^6 CFU/μl (ATCC strain 19660) of the P. aeruginosa suspension.
An established corneal disease grading scale, described in detail in Hazlett L D, et al., Invest Ophthalmol Vis Sci. 1987; 28:1978-1985, was used to assign a clinical score value to each infected eye at 1, 3 and 5 days post infection (p.i.). Clinical scores were designated as: 0=clear or slight opacity, partially or fully covering the pupil; +1=slight opacity, fully covering the anterior segment; +2=dense opacity, partially or fully covering the pupil; +3=dense opacity, covering the entire anterior segment; and +4=corneal perforation or phthisis. Clinical scores were used to statistically compare disease severity and were accompanied by photographs using a slit lamp (5 days p.i.) to confirm and illustrate the response.
as §1, with “In an additional experiment, KEI 1025 infected B6 mice were treated with 5 μl of 2 μg/μl GLY subconjunctivally at 6 hours p.i. and injected intraperitoneally at 1 and 3 days p.i. with 100 μl of GLY (2 μg/μl).” left out

CC1(C)[C@@H](O[C@H]2O[C@H](C(=O)O)[C@@H](O)[C@H](O)[C@H]2O[C@@H]2O[C@H](C(=O)O)[C@@H](O)[C@H](O)[C@H]2O)CC[C@]2(C)[C@H]3C(=O)C=C4[C@@H]5C[C@@](C)(C(=O)O)CC[C@]5(C)CC[C@@]4(C)[C@]3(C)CC[C@@H]12 [GLY, glycyrrhizin]
mRNA levels of CXCL2 ([1]; strain 19660, 5 days p.i.): slightly, but not significantly decreased
Relative mRNA levels for HMGB1 ([1]; strain 19660, infected cornea 5 days p.i.): no different
CXCL2 mRNA ([1]; strain 19660 experiment, normal cornea): No differences
Relative mRNA levels for HMGB1 ([1]; strain 19660 experiment, uninfected, normal cornea): no different
MIC50 (P. aeruginosa ATCC 19660; Pseudomonas aeruginosa, ATCC19660, strain 19660, 50% decrease in absorbance at 540 nm, 37° C., 18 h): 20 mg/mL (≈ 24.3 mM)
MIC90 (P. aeruginosa ATCC 19660; Pseudomonas aeruginosa, ATCC19660, strain 19660, 90% decrease in absorbance at 540 nm, 37° C., 18 h): 40 mg/mL (≈ 48.6 mM)
Minimum Inhibitory Concentration 50 (MIC50) (P. aeruginosa ATCC 19660; cytotoxic strains): 20 milligrams/milliliter
absorbance values of bacterial cultures (P. aeruginosa ATCC 19660; strain 19660, grown with 10 mg/ml GLY): significantly reduced
absorbance values of bacterial cultures (P. aeruginosa ATCC 19660; strain 19660, grown with 20 mg/ml GLY): significantly reduced
absorbance values of bacterial cultures (P. aeruginosa ATCC 19660; strain 19660, grown with 40 mg/ml GLY): significantly reduced
MIC50 (P. aeruginosa KEI 1025; Pseudomonas aeruginosa, KEI1025, strain KEI 1025, 50% decrease in absorbance at 540 nm, 37° C., 18 h): 20 mg/mL (≈ 24.3 mM)
MIC90 (P. aeruginosa KEI 1025; Pseudomonas aeruginosa, KEI1025, strain KEI 1025, 90% decrease in absorbance at 540 nm, 37° C., 18 h): 40 mg/mL (≈ 48.6 mM)
Minimum Inhibitory Concentration 50 (MIC50) (P. aeruginosa KEI 1025; non-cytotoxic strains): 20 milligrams/milliliter
absorbance values of bacterial cultures (P. aeruginosa KEI 1025; strain KEI 1025, grown with 20 mg/ml GLY): significantly reduced
absorbance values of bacterial cultures (P. aeruginosa KEI 1025; strain KEI 1025, grown with 40 mg/ml GLY): significantly reduced
clinical scores ([2]; 1 day p.i.): not at 1 day p.i.
clinical scores ([2]; 3 days p.i.): reduced clinical scores that were significant
clinical scores ([2]; 5 days p.i.): reduced clinical scores that were significant
disease/opacity, slit lamp photographs ([2]; 5 days p.i.): less disease, reduced opacity
